From US20040054244A1, “Process of quadricyclane production” (Exciton, Inc., priority 2000, published 2004)

Assay: Solubility of sensitizer in norbornadiene
Conditions: at room temperature

Compound: CCN(CC)c1ccc(C(=O)c2ccc(N(CC)CC)cc2)cc1 [EMK, 4,4′-bis (diethylamino) benzophenone]
- solubility in norbornadiene: at least 3.86 % by weight

Compound: CN(C)c1ccc(C(=O)c2ccc(N(C)C)cc2)cc1 [MK, 4,4′-bis (dimethylamino)-benzophenone]
- solubility in norbornadiene: ≤ 0.32 % by weight
